Source: ChEMBL document CHEMBL1156829 (Proc Natl Acad Sci U S A, 2008)
pEC50: −log10 of the molar value.

Columns and labels:
Plasmodium falciparum [1] = assay: NOVARTIS: Inhibition of Plasmodium falciparum 3D7 (drug-susceptible) proliferation in erythrocyte-based infection assay; assay type: functional, organism-based; settings: Plasmodium falciparum, 3D7
Plasmodium falciparum [2] = assay: NOVARTIS: Inhibition of Plasmodium falciparum W2 (drug-resistant) proliferation in erythrocyte-based infection assay; assay type: functional, organism-based; settings: Plasmodium falciparum, W2; read-out: EC50
[3] = NOVARTIS: Cytotoxicity against human hepatocellular carcinoma cell line (Huh7); assay type: toxicity, cell-based, Huh-7; settings: Huh7 cells (hepatocellular carcinoma cell line)

Row | Structure (SMILES) | pEC50 (Plasmodium falciparum [1]) | pEC50 (Plasmodium falciparum [2]) | CC50 [3] [µM]
1 | CN1CCN(c2ccc(Nc3c4ccccc4nc4ccccc34)cc2)CC1 | 7.25 | 7.02 | 6.76
2 | CC(=Cc1sc2ccc3occc3c2[n+]1CCO)C=C1Sc2ccc3ccoc3c2N1CCO.CCC(=Cc1sc2ccc3ccccc3c2[n+]1C)C=C1Sc2ccc3ccccc3c2N1C | < 6.43 | 6.84 | > 10
3 | COc1cc(Nc2cncc(-c3ccncc3)n2)cc(OC)c1OC | 5.96 | 5.85 | > 100
4 | O=C(c1cccs1)N1CCN(c2ccc([N+](=O)[O-])c(NC3CC3)c2)CC1 | 5.68 | 5.86 | > 100
5 | OCCNc1nc(Nc2cccc(O)c2)nc2ccccc12 | 6.69 | 6.00 | 69.5
6 | Cc1ccc(NC(=O)c2ccc(NCCCN3CC(C)CC(C)C3)c([N+](=O)[O-])c2)cc1F (stereo not given) | 6.66 | 6.13 | > 53.6
7 | COc1ccc(NC(=O)N(CCCNS(=O)(=O)c2ccc([N+](=O)[O-])cc2)c2ccc(Oc3ccccc3)cc2)cc1 | 6.13 | 6.94 | > 7.77
8 | CCOC(=O)c1[nH]c2ccc(OC)cc2c1N=NN(C)C | 6.35 | 6.02 | 68.6
9 | O=C(c1ccc(Cl)cc1Cl)N1CCCC(C(F)(F)F)C1 (stereo not given) | 6.18 | 5.85 | > 100
10 | COc1ccc(C(NC(=O)c2cccc(OC)c2)c2cc(Cl)c3cccnc3c2O)cc1 (stereo not given) | 6.01 | 5.86 | > 100
11 | Cc1cccc(NC(c2cccc(Cl)c2)c2ccc3cccnc3c2O)n1 (stereo not given) | 6.04 | 6.05 | > 62.4
12 | COc1ccc(NC(=O)N2CCN(C(=O)c3nc(-c4ccccc4)nc(C)c3C(=O)OC(C)C)CC2C)cc1 (stereo not given) | 6.20 | 6.85 | > 10
13 | CCCCOc1ccc(C(=O)N(C)CCCNc2ccnc3cc(Cl)ccc23)cc1 | 6.22 | 7.16 | 4.79
14 | O=C(NN=Cc1cccc(Cl)c1)C1COc2ccccc2O1 (stereo not given) | < 6.03 | < 6.84 | > 10
15 | COc1ccc(C(OCC(=O)N2CCSCC2)c2ccncc2Cl)cc1 (stereo not given) | < 4.91 | 5.84 | > 100
16 | Cc1nc(-c2nc3c(s2)CN(C(=O)c2ccncc2)CC3)cs1 | 6.79 | 6.84 | > 10
17 | CC1CCCCN1CC(=O)N1CCN(C(=O)CN2CCCCC2C)CC1.CC=O (stereo not given) | < 5.90 | 7.22 | > 4.25
18 | Cc1noc(C)c1S(=O)(=O)N(Cc1ccccc1)CC(O)CN1CCC(NC(=O)Cc2cccs2)C1 (stereo not given) | 6.76 | 6.85 | > 10
19 | CCOC(=O)C1=C(C)N=c2sc(=Cc3cc(Br)ccc3O)c(=O)n2C1c1ccccc1 (stereo not given) | 5.26 | 5.85 | > 100
20 | CCOC(=O)C1=C(C(=O)OCC)SC(=C2C(=S)C(C)(C)N(C(=O)c3cccc(F)c3)c3cc(C)ccc32)S1 | < 5.12 | < 5.85 | > 100
21 | CN(CCCNc1ccnc2cc(Cl)ccc12)C(=O)c1ccc(Cl)c(Cl)c1 | 7.44 | 6.91 | > 8.36
22 | N#Cc1c(N)n(CCc2ccc(Cl)cc2Cl)c2nc3ccccc3nc12 | 6.08 | 6.31 | 33.4
23 | CCCCC(=O)NC(c1cccc([N+](=O)[O-])c1)c1ccc2cccnc2c1O (stereo not given) | 6.42 | 6.57 | 18.8
24 | CC(C)CN1C(=O)N(CCCc2cccnc2)C(=O)C12CCN(C1CCOCC1)CC2 | < 4.90 | 5.85 | > 100

Row | Structure (SMILES) | pEC50 (Plasmodium falciparum [1]) | pEC50 (Plasmodium falciparum [2]) | CC50 [3] [µM]
25 | CCCCNC(=O)NC(Cc1c[nH]c2ccccc12)C(=O)NC1CCCCC1 (stereo not given) | < 5.90 | < 7.55 | > 2.02
26 | CC[n+]1c(/C=C/c2ccc(F)cc2)ccc2ccccc21 | 6.91 | 6.86 | > 10
27 | CCNC(=S)NC1CC2CCCC(C1)N2CCc1ccccc1 (stereo not given) | 5.80 | 5.86 | > 100
28 | COc1ccc(C2CC(=O)C3=C(C2)NC(C)=C(C(=O)OC2CCCC2)C3c2cccc(C)c2)cc1OC (stereo not given) | 6.52 | 6.68 | 14.9
29 | CC1CCCN(c2ccc(C(=O)NC3CC3)cc2[N+](=O)[O-])C1 (stereo not given) | 6.25 | 5.84 | > 100
30 | CCOC(=O)c1c(-c2ccccc2)oc2c1C(=O)c1ccccc1C2=O | 5.95 | 5.87 | > 100
31 | COc1ccc(C=CC(=O)NC(=O)c2ccccc2O)cc1OC | 5.89 | 5.86 | > 100
32 | O=C(Nc1ccc(Cl)cc1)N1CCN(c2ccc3nncn3n2)CC1 | 5.69 | 5.86 | > 100
33 | Cc1cccc(-n2ccnc2SCC(=O)Nc2cc(C(F)(F)F)ccc2Cl)c1 | 6.27 | 5.83 | > 100
34 | CCC(C(=O)NCCCCNc1ccnc2cc(Cl)ccc12)c1ccccc1 (stereo not given) | 6.54 | 6.77 | 11.5
35 | CC(C)(C)NC(=O)C(C1CC1)N1C(=O)c2cc(O)ccc2NC(=O)[C@@H]1CCCCN (stereo not given in full) | < 5.90 | 6.86 | > 10
36 | COc1ccc(-c2noc(CC(=O)Nc3ccccc3C#N)n2)cc1 | 5.22 | 5.86 | > 100
37 | CC(C)OC(=O)CSc1nnc(CNc2nc(-c3ccccc3)cs2)n1C | 5.86 | 5.86 | > 100
38 | COC(=O)CC(NC(=O)c1ccc(C)cc1)c1ccc2c(c1)OCO2 (stereo not given) | < 5.77 | 6.69 | 15
39 | COC(=O)[C@@H]1C[C@@H](NC(=O)c2ccc(C)cc2)CN1Cc1ccc(OC)c(C)c1OC | 6.25 | 6.86 | > 10
40 | COc1cccc2c1OCC(CN1CCC(C(=O)Nc3ccc(-n4cccn4)cc3)CC1)=C2 | 6.09 | < 5.86 | > 100
41 | Cc1cccc(C)c1OCC(=O)Nc1ccccc1O | 6.13 | 5.87 | > 100
42 | O=S(=O)(Nc1ccc(F)cc1)N1CCCCCC1 | < 4.90 | 5.87 | > 100
43 | COc1cccc(NC(=O)c2ccc(NCCCC3CCCCCC3)c([N+](=O)[O-])c2)c1 | 6.65 | 6.41 | 28.8
44 | CCCCN(CCCC)CCCNc1ncnc2c1[nH]c1ccc(C)cc12 | 6.83 | 7.00 | 7.41
45 | Cc1ccc(-c2cc(C(F)(F)F)n3ncc(C(=O)Nc4cc(Cl)ccc4O)c3n2)cc1 | 5.73 | 5.85 | > 100
46 | O=C(Nc1ccc([N+](=O)[O-])cc1Cl)c1cc(Br)ccc1O | < 4.90 | 6.10 | 55.6
47 | CCN(c1ccc(OC)cc1)S(=O)(=O)c1ccc(C)cc1 | < 4.90 | 5.86 | > 100
48 | O=C(Nc1ccc(Oc2cccnc2)cc1)C1CCN(Cc2ccc3nonc3c2)CC1 | 5.95 | 5.85 | > 100

Row | Structure (SMILES) | pEC50 (Plasmodium falciparum [1]) | pEC50 (Plasmodium falciparum [2]) | CC50 [3] [µM]
49 | COc1cc2c(cc1OC)C(COc1ccc(F)cc1)N(C(=O)c1ccc(OC(C)C)cc1)CC2 (stereo not given) | 6.81 | 5.85 | > 100
50 | COc1cccc(C(C(=O)NC2CCCCC2)N(C(=O)c2snc(C(N)=O)c2N)c2ccc(C)cc2)c1OC (stereo not given) | 5.46 | 5.86 | > 100
51 | CCOc1ccc2nc(C)cc(Nc3cccc(O)c3)c2c1 | 6.70 | 6.54 | 19.8
52 | BrC(Br)(Br)c1ncc(-c2ccccc2)cn1 | 7.36 | 6.85 | > 10
53 | COc1ccc(CNC2CCN(c3cccc(NC(=O)C4CC4)c3)CC2)cc1 | 5.53 | 6.02 | 65.1
54 | Cc1nc(-c2cnccc2C(F)(F)F)sc1C(=O)NN | < 4.96 | 5.86 | > 100
55 | COc1ccccc1N1C(=N)S/C(=C/c2ccc(N(C)C)cc2)C1=O | 6.92 | 6.87 | > 10
56 | CCOc1ccc2[nH]c3c(NCCN(C)C)ncnc3c2c1 | 6.11 | 6.36 | 32.5
57 | COc1ccc(C(=O)C2CC2c2ccc(Cl)cc2)cc1 (stereo not given) | 6.66 | 5.85 | > 100
58 | Cc1sc2ncnc(Nc3ccncc3)c2c1C | < 4.90 | < 5.84 | > 100
59 | COc1ccc(C)cc1-n1c(-c2ccc(Cl)cc2)cc2c1CC(C)(C)CC2=O | 8.48 | < 6.84 | > 10
60 | Cc1ccc(COc2ccc3c(C#N)c4ccccn4c3c2)cc1 | 5.68 | 5.86 | > 100
61 | Cc1ccc(C2CC(=O)N3CN(c4ccc(Br)cc4)CSC3=C2C#N)o1 (stereo not given) | < 4.90 | 5.87 | > 100
62 | O=C(COC(c1cccs1)c1cccnc1Cl)N1CCN(C(=O)Nc2ccccc2)CC1 (stereo not given) | < 4.90 | 5.85 | > 100
63 | CN(CCCNc1ccnc2cc(Cl)ccc12)C(=O)c1cccc(Br)c1 | 7.22 | 6.86 | 9.59
64 | Cc1cccnc1NC(c1ccc([N+](=O)[O-])cc1)c1ccc2cccnc2c1O (stereo not given) | 6.85 | 6.67 | 15
65 | Oc1c2c(nc3cc(-c4ccc(-c5ccccc5)cc4)nn13)CCCC2 | 5.94 | 5.99 | > 73.8
66 | CC(=O)c1ccc(OCc2cc(C(=O)N3CCCCC3c3cccnc3)no2)cc1 (stereo not given) | 5.38 | 5.86 | > 100
67 | CC(=O)Nc1ccc(S(=O)(=O)N(C)CC(=O)NN=Cc2ccncc2)cc1 | < 5.24 | 5.87 | > 100
68 | CCOC(=O)c1c(C)oc2c1C(=O)c1ccccc1C2=O | 5.71 | 6.15 | 49.3
69 | CCOC(=O)c1ccc(OCC2c3cc(OC)c(OC)cc3CCN2C(=O)c2ccc([N+](=O)[O-])cc2)cc1 (stereo not given) | < 4.90 | 5.87 | > 100
70 | O=C(CNCCc1ccccc1)NC(c1ccccc1)c1ccccc1 | 5.22 | 6.21 | 45.4
